Experimental findings from patent US20250257086A1, “EGFR DEGRADATION AGENT” (Beijing Tide Pharmaceutical Co., Ltd., priority 2022, published 2025) are described below.

In the experiment the target is Ba/F3 (EGFR^L858R/T790M/C797S) cells (Homo sapiens, UniProt P00533, T790M/C797S/L858R, cells depend on it). The experiment is described as follows: Antiproliferative activity on Ba/F3 (EGFR L858R/T790M/C797S) cells (CTG). It is filed as cell-based. Particulars: 72h incubation, CTG luminescence, read-out: IC50 (nM), antiproliferative activity. The method, then:
30 nL of the compound dilution was added to a 384-well plate by Echo (Labcyte, Echo550).
The percent inhibition rate (% inhibition) was calculated by the following formula
[formula] • LUMcmpd: Luminescence value of assay compound. • LUMpositive: Average LUM value of positive drug with a concentration of 10 μM. • LUMvehicle: Average LUM value of negative control group without drug treatment.
The nonlinear regression curve (dose response-variable slope) between the value of inhibition rate (%) and the logarithm of compound concentration was fitted with graphpad prism 8.0, the effect dose curve of compound was drawn, and the IC50 value was calculated.
Y=Bottom+(Top−Bottom)/(1+10^((Log IC50−X)*HillSlope)) • X-axis: logarithm of compound concentration; Y axis: inhibition rate (% inhibition).

Sequence of Ba/F3 (EGFR^L858R/T790M/C797S) cells (P00533 whole entry T790M/C797S/L858R): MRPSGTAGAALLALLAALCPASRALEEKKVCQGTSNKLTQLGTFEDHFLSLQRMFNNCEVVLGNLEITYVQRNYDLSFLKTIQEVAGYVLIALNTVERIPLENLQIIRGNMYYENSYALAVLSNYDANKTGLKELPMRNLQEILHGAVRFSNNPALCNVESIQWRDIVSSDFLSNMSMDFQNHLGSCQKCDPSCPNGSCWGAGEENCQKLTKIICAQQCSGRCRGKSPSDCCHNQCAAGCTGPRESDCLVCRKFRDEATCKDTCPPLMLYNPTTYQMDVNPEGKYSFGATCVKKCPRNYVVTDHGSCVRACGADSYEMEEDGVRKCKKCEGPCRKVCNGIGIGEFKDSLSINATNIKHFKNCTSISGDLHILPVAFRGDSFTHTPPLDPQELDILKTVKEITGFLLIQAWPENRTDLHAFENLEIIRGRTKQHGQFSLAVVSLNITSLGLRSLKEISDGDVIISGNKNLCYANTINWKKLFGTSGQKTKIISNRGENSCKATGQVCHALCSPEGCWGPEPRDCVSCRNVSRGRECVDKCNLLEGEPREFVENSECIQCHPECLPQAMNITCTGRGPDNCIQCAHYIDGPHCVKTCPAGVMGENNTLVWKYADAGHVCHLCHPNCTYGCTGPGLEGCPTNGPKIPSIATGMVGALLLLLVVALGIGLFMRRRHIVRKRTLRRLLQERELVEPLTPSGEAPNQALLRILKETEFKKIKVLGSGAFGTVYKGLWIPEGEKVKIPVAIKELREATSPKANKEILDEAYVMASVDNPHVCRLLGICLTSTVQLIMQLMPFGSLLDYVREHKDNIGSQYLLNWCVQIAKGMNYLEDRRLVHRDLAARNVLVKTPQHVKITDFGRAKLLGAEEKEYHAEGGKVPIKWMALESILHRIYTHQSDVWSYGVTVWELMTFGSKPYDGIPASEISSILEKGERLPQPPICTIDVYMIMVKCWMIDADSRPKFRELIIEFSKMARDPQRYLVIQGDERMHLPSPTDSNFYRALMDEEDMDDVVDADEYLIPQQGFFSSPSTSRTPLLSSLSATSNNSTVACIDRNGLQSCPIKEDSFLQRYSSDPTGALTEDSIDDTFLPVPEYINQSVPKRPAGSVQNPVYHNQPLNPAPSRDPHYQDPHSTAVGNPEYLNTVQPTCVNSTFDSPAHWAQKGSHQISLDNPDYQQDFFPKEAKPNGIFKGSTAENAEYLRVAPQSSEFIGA

As for `CP(C)(=O)c1ccccc1Nc1nc(Nc2ccc(N3CCC(N4CCN(CCCC#Cc5cccc6c5CN(C5CCC(=O)NC5=O)C6=O)CC4)CC3)c(NC(=O)/C=C/C(F)(F)F)c2)ncc1Cl` (stereo not drawn) [Compound D667, (E)-N-(5-((5-chloro-4-((2-(dimethylphosphoryl)phenyl)amino)pyrimidin-2-yl)amino)-2-(4-(4-(5-(2-(2,6-dioxopiperidin-3-yl)-1-oxoisoindolin-4-yl)pent-4-yn-1-yl)piperazin-1-yl)piperidin-1-yl)phenyl)-4,4,4-trifluorobut-2-enamide], the GI50 is 18.1 nM.

Consider `CCCC#CC(=O)Nc1cc(Nc2ncc(Cl)c(Nc3ccccc3P(C)(C)=O)n2)ccc1N1CCC(N2CCN(CCCC#Cc3cccc4c3CN(C3CCC(=O)NC3=O)C4=O)CC2)CC1` (stereo not drawn) [Compound D668, N-(5-((5-chloro-4-((2-(dimethylphosphoryl)phenyl)amino)pyrimidin-2-yl)amino)-2-(4-(4-(5-(2-(2,6-dioxopiperidin-3-yl)-1-oxoisoindolin-4-yl)pent-4-yn-1-yl)piperazin-1-yl)piperidin-1-yl)phenyl)hex-2-ynamide], for which the GI50 worked out at 21.2 nM.

On to `C=CC(=O)Nc1cc(Nc2ncc(Cl)c(Nc3ccc4nccnc4c3P(C)(C)=O)n2)c(OC)cc1N1CCC(N2CCN(CCCC#Cc3cccc4c3CN(C3CCC(=O)NC3=O)C4=O)CC2)CC1` (stereo not drawn) [Compound D670, N-(5-((5-chloro-4-((5-(dimethylphosphoryl)quinoxalin-6-yl)amino)pyrimidin-2-yl)amino)-2-(4-(4-(5-(2-(2,6-dioxopiperidin-3-yl)-1-oxoisoindolin-4-yl)pent-4-yn-1-yl)piperazin-1-yl)piperidin-1-yl)-4-methoxyphenyl)acrylamide], for which the GI50 stood at 25.7 nM.

`C=C(F)C(=O)Nc1cc(Nc2ncc(Cl)c(Nc3ccc4nccnc4c3P(C)(C)=O)n2)c(OC)cc1N1CCC(N2CCN(CCCC#Cc3cccc4c3CN(C3CCC(=O)NC3=O)C4=O)CC2)CC1` (stereo not drawn) [Compound D671, N-(5-((5-chloro-4-((5-(dimethylphosphoryl)quinoxalin-6-yl)amino)pyrimidin-2-yl)amino)-2-(4-(4-(5-(2-(2,6-dioxopiperidin-3-yl)-1-oxoisoindolin-4-yl)pent-4-yn-1-yl)piperazin-1-yl)piperidin-1-yl)-4-methoxyphenyl)-2-fluoroacrylamide]: the GI50 stood at 14.5 nM.

As for `CC#CC(=O)Nc1cc(Nc2ncc(Cl)c(Nc3ccc4nccnc4c3P(C)(C)=O)n2)c(OC)cc1N1CCC(N2CCN(CCCC#Cc3cccc4c3CN(C3CCC(=O)NC3=O)C4=O)CC2)CC1` (stereo not drawn) [Compound D672, N-(5-((5-chloro-4-((5-(dimethylphosphoryl)quinoxalin-6-yl)amino)pyrimidin-2-yl)amino)-2-(4-(4-(5-(2-(2,6-dioxopiperidin-3-yl)-1-oxoisoindolin-4-yl)pent-4-yn-1-yl)piperazin-1-yl)piperidin-1-yl)-4-methoxyphenyl)but-2-ynamide], the GI50 came to 15.1 nM.

Turning to `COc1cc(N2CCC(N3CCN(CCCC#Cc4cccc5c4CN(C4CCC(=O)NC4=O)C5=O)CC3)CC2)c(NC(=O)/C=C/C(F)(F)F)cc1Nc1ncc(Cl)c(Nc2ccc3nccnc3c2P(C)(C)=O)n1` (stereo not drawn) [Compound D673, (E)-N-(5-((5-chloro-4-((5-(dimethylphosphoryl)quinoxalin-6-yl)amino)pyrimidin-2-yl)amino)-2-(4-(4-(5-(2-(2,6-dioxopiperidin-3-yl)-1-oxoisoindolin-4-yl)pent-4-yn-1-yl)piperazin-1-yl)piperidin-1-yl)-4-methoxyphenyl)-4,4,4-trifluorobut-2-enamide], the GI50 is 20.6 nM.

`C=C(F)C(=O)Nc1cc(Nc2ncc(Cl)c(Nc3ccc4c(c3P(C)(C)=O)OCCO4)n2)c(OC)cc1N1CCC(N2CCN(CCCC#Cc3cccc4c3CN(C3CCC(=O)NC3=O)C4=O)CC2)CC1` (stereo not drawn) [Compound D682]: the GI50 turned out to be 14.6 nM.

In the case of `C=CC(=O)Nc1cc(Nc2ncc(Cl)c(Nc3ccc4c(c3P(C)(C)=O)OCCO4)n2)c(OC)cc1N1CCC(N2CCN(CCCC#Cc3cccc4c3CN(C3CCC(=O)NC3=O)C4=O)CC2)CC1` (stereo not drawn) [Compound D683], the GI50 came out at 22.3 nM.

As to `COc1cc(N2CCC(N3CCN(CCCC#Cc4cccc5c4CN(C4CCC(=O)NC4=O)C5=O)CC3)CC2)c(NC(=O)/C=C/C(F)(F)F)cc1Nc1ncc(Cl)c(Nc2ccc3c(c2P(C)(C)=O)OCCO3)n1` (stereo not drawn) [Compound D684], the GI50 is 24.1 nM.

Turning to `CC#CC(=O)Nc1cc(Nc2ncc(Cl)c(Nc3ccc4c(c3P(C)(C)=O)OCCO4)n2)c(OC)cc1N1CCC(N2CCN(CCCC#Cc3cccc4c3CN(C3CCC(=O)NC3=O)C4=O)CC2)CC1` (stereo not drawn) [Compound D685], the GI50 is 22.5 nM.

As for `COc1cc(N2CCC(N3CCN(CCCC#Cc4cccc5c4CN(C4CCC(=O)NC4=O)C5=O)CC3)CC2)c(C)cc1Nc1ncc(Br)c(Nc2ccc3nccnc3c2NS(C)(=O)=O)n1` (stereo not drawn) [Compound D741, N-(6-((5-bromo-2-((4-(4-(4-(5-(2-(2,6-dioxopiperidin-3-yl)-1-oxoisoindolin-4-yl)pent-4-yn-1-yl)piperazin-1-yl)piperidin-1-yl)-2-methoxy-5-methylphenyl)amino)pyrimidin-4-yl)amino)quinoxalin-5-yl)methanesulfonamide], the GI50 was 10.2 nM.

On to `C=C(F)C(=O)Nc1cc(Nc2ncc(C(F)(F)F)c(Nc3ccccc3P(C)(C)=O)n2)c(OC)cc1N1CCC(N2CCN(CCCC#Cc3cccc4c3CN(C3CCC(=O)NC3=O)C4=O)CC2)CC1` (stereo not drawn) [Compound D746, N-(5-((4-((2-(dimethylphosphoryl)phenyl)amino)-5-(trifluoromethyl)pyrimidin-2-yl)amino)-2-(4-(4-(5-(2-(2,6-dioxopiperidin-3-yl)-1-oxoisoindolin-4-yl)pent-4-yn-1-yl)piperazin-1-yl)piperidin-1-yl)-4-methoxyphenyl)-2-fluoroacrylamide], for which the GI50 is 3.36 nM.

Turning to `COc1cc(N2CCC(N3CCN(CCCC#Cc4cccc5c4CN(C4CCC(=O)NC4=O)C5=O)CC3)CC2)c(NC(=O)/C=C/C(F)(F)F)cc1Nc1ncc(C(F)(F)F)c(Nc2ccccc2P(C)(C)=O)n1` (stereo not drawn) [Compound D747, (E)-N-(5-((4-((2-(dimethylphosphoryl)phenyl)amino)-5-(trifluoromethyl)pyrimidin-2-yl)amino)-2-(4-(4-(5-(2-(2,6-dioxopiperidin-3-yl)-1-oxoisoindolin-4-yl)pent-4-yn-1-yl)piperazin-1-yl)piperidin-1-yl)-4-methoxyphenyl)-4,4,4-trifluorobut-2-enamide], the GI50 came out at 8.77 nM.

Consider `CC#CC(=O)Nc1cc(Nc2ncc(C(F)(F)F)c(Nc3ccccc3P(C)(C)=O)n2)c(OC)cc1N1CCC(N2CCN(CCCC#Cc3cccc4c3CN(C3CCC(=O)NC3=O)C4=O)CC2)CC1` (stereo not drawn) [Compound D748, N-(5-((4-((2-(dimethylphosphoryl)phenyl)amino)-5-(trifluoromethyl)pyrimidin-2-yl)amino)-2-(4-(4-(5-(2-(2,6-dioxopiperidin-3-yl)-1-oxoisoindolin-4-yl)pent-4-yn-1-yl)piperazin-1-yl)piperidin-1-yl)-4-methoxyphenyl)but-2-ynamide], for which the GI50 was determined as 7.76 nM.

With `CCCC#CC(=O)Nc1cc(Nc2ncc(C(F)(F)F)c(Nc3ccccc3P(C)(C)=O)n2)c(OC)cc1N1CCC(N2CCN(CCCC#Cc3cccc4c3CN(C3CCC(=O)NC3=O)C4=O)CC2)CC1` (stereo not drawn) [Compound D835, N-(5-((4-((2-(dimethylphosphoryl)phenyl)amino)-5-(trifluoromethyl)pyrimidin-2-yl)amino)-2-(4-(4-(5-(2-(2,6-dioxopiperidin-3-yl)-1-oxoisoindolin-4-yl)pent-4-yn-1-yl)piperazin-1-yl)piperidin-1-yl)-4-methoxyphenyl)hex-2-ynamide], the GI50 worked out at 11.9 nM.

As to `CC#CC(=O)Nc1cc(Nc2ncc(Br)c(Nc3ccccc3P(C)(C)=O)n2)c(OCC(F)(F)F)cc1N1CCC(N2CCN(CCCC#Cc3cccc4c3CN(C3CCC(=O)NC3=O)C4=O)CC2)CC1` (stereo not drawn) [Compound D845, N-(5-((5-bromo-4-((2-(dimethylphosphoryl)phenyl)amino)pyrimidin-2-yl)amino)-2-(4-(4-(5-(2-(2,6-dioxopiperidin-3-yl)-1-oxoisoindolin-4-yl)pent-4-yn-1-yl)piperazin-1-yl)piperidin-1-yl)-4-(2,2,2-trifluoroethoxy)phenyl)but-2-ynamide], the GI50 was 16.9 nM.

`C=C(F)C(=O)Nc1cc(Nc2ncc(Br)c(Nc3ccccc3P(C)(C)=O)n2)c(OCC(F)(F)F)cc1N1CCC(N2CCN(CCCC#Cc3cccc4c3CN(C3CCC(=O)NC3=O)C4=O)CC2)CC1` (stereo not drawn) [Compound D846, N-(5-((5-bromo-4-((2-(dimethylphosphoryl)phenyl)amino)pyrimidin-2-yl)amino)-2-(4-(4-(5-(2-(2,6-dioxopiperidin-3-yl)-1-oxoisoindolin-4-yl)pent-4-yn-1-yl)piperazin-1-yl)piperidin-1-yl)-4-(2,2,2-trifluoroethoxy)phenyl)-2-fluoroacrylamide]: the GI50 stood at 11.9 nM.

In the case of `CP(C)(=O)c1ccccc1Nc1nc(Nc2cc(NC(=O)/C=C/C(F)(F)F)c(N3CCC(N4CCN(CCCC#Cc5cccc6c5CN(C5CCC(=O)NC5=O)C6=O)CC4)CC3)cc2OCC(F)(F)F)ncc1Br` (stereo not drawn) [Compound D847, (E)-N-(5-((5-bromo-4-((2-(dimethylphosphoryl)phenyl)amino)pyrimidin-2-yl)amino)-2-(4-(4-(5-(2-(2,6-dioxopiperidin-3-yl)-1-oxoisoindolin-4-yl)pent-4-yn-1-yl)piperazin-1-yl)piperidin-1-yl)-4-(2,2,2-trifluoroethoxy)phenyl)-4,4,4-trifluorobut-2-enamide], the GI50 stood at 16.3 nM.
